SMILES strings stand for the structures.

What all share (assay type): cell-based, human
Experiment [1] has as its system NF-κB p65 in T. cruzi-infected EA.hy926 cells. The experiment in a line: Nuclear p65 localization by confocal microscopy. Particulars: 100 nM 15-epi-LXA4 before T. cruzi 1 hour. As to the method:
2x10^4 EA.hy926 cells were seeded in Lab-Tek II Chamber Slides^TM for 12 hours. Cells were fixed in 3.7% formaldehyde–0.1 M phosphate buffer (pH 7.3) for 10 min. They were then washed with cytoskeletal buffer followed by permeabilization for 5 min with Triton-X100 0.5%. Cells were blocked with 3% bovine serum albumin for 1 hour. […] The samples were washed with PBS and incubated with anti-rabbit IgG conjugated with fluorescein (1:100) from Sigma-Aldrich for 1 hour. Finally, nuclei were stained with DAPI for 5 minutes and mounted in Dako fluorescence mounting media. The cells were photographed and ten pictures per well were obtained; images were analyzed using ImageJ software (ImageJ 1.47v).

Experiment [2] deals with NF-κB pathway (p-IKK, p-IκB) in T. cruzi-infected EA.hy926 cells. The experiment in a line: IKK and IκB phosphorylation by Western blot. Particulars: exogenous 15-epi-LXA4 for 24 hours before T. cruzi 1 hour. The procedure:
5x10^5 endothelial cells were rinsed once with PBS and scraped. Proteins were extracted into 100 μL RIPA buffer plus a protease and phosphatase inhibitor cocktail (Radio-Immunoprecipitation Assay; Millipore Corporation, USA) at 4°C. Total protein was quantified with the Lowry assay. Samples in loading buffer (10% SDS, 50% glycerol, 0.5 M Tris, 0.1% bromophenol blue, and 1 M dithiothreitol, pH 6.8) were electrophoretically separated by 10% SDS-PAGE and transferred to a nitrocellulose membrane. Nitrocellulose membranes were incubated with blocking solution (5% w/v nonfat dry milk, 0.1% Tween-20 in Tris-buffered saline) at room temperature for 1 hour. Then, the membranes were incubated at 4°C overnight with 1 mL solution of primary antibodies against E-selectin (1:1000) and α-Tubulin (1:10.000) from Sigma-Aldrich, ICAM-1 (1:2000) and VCAM-1 (1:1000) from Abcam, 7 ml solution of p-IKK (1:1000), IKK (1:1000), p-IκB (1:1000) and IκB (1:1000) from Cell signaling (Cell Signaling Technologies, USA). Bound antibodies were detected with horseradish peroxidase-conjugated secondary antibodies and visualized by Lumminata forte (Millipore). The nitrocellulose was stripped between reprobes using Mild stripping (Millipore) for 10 minutes. Developed films were scanned, and band densitometry was analyzed using ImageJ software (ImageJ 1.47v).

Experiment [3] deals with E-selectin, ICAM-1 and VCAM-1 expression on T. cruzi-infected EA.hy926 and HUVEC cells. The experiment in a line: Endothelial cell adhesion molecule surface expression by flow cytometry / immunofluorescence. Particulars: EA.hy926. As to the method:
Then, cells were infected with trypomastigotes at a MOI of 10 and incubated for 16 hours. Cells were detached with 1X EDTA-PBS at 0.5 mM. The harvested cells were washed with cold PBS and centrifuged at 800 x g for 5 minutes. Then, cells were washed with flow cytometry buffer three times. 100 μL of cell suspensions were incubated for 45 min at 4°C in the dark with mouse monoclonal anti- human E-selectin (5 μL undiluted), ICAM-1(3 μL undiluted), and VCAM-1 (1 μL undiluted) that were conjugated with PE, FITC and APC, respectively (BioLegend, USA). Cell suspensions were analyzed by flow cytometry using a FACSAria-III flow cytometer (BD Biosciences, USA). A homogeneous cell population was selected by size vs. granularity in log scale for these two conditions.
2x10^4 EA.hy926 cells/slide were seeded in Lab-Tek II Chamber Slide^TM (ThermoScientific, USA) and allowed to adhere overnight. […] After 16 hours of infection, cells were fixed in 4% formaldehyde–0.1 M phosphate buffer (pH 7.3) for 10 min. Cells were blocked with 3% bovine serum albumin for 1 hour. Then, cells were incubated with monoclonal antibodies against E-selectin (1:100), VCAM-1 (1:250) and ICAM-1 (1:100) (from Abcam, UK) overnight at 4°C. The samples were washed with PBS and incubated with anti-rabbit IgG that had been conjugated with fluorescein (1:100) from Sigma-Aldrich for 1 h. Finally, nuclei were stained with DAPI for 5 minutes and mounted with Dako Fluorescence Mounting (Dako, USA). The cells were photographed using a Nikon Eclipse 400 fluorescence microscope (Nikon, Japan), and images were analyzed by mean intensity using ImageJ software (ImageJ 1.47v).
(In general: Flow cytometry measures light scatter and fluorescence of single cells or particles in a stream.)

In the case of `CCCCC[C@@H](O)/C=C/C=C\C=C\C=C\[C@@H](O)[C@@H](O)CCCC(=O)O` [15-epi-LXA4, 15-epi-lipoxin A4], the “Nuclear p65 migration” value in experiment [1] is reported as “decreased nuclear p65 migration”. Also, in experiment [2], the IKK-IκB pathway activity result is reported as “decreased IKK-IκB pathway activity in a dose-dependent fashion”. The “Endothelial adhesion molecule expression” value in experiment [3] (1 and 10 nM 15-epi-LXA4 for 24 hours before 16 hours infection) is “reduced endothelial adhesion molecule expression”.

Regarding `CC1=C(C)C(=O)C(CCCCC#CCCCC#CCO)=C(C)C1=O` [AA-861, 2-(12-hydroxydodeca-5,10-diynyl)-3,5,6-trimethyl-p-benzoquinone], the “ICAM expression in presence of simvastatin plus 5-lipoxygenase inhibitor” value in experiment [3] (5 μM simvastatin with AA-861 (50 μM) for 24 hours before 16 hours infection) was “ICAM expression was restored”.

Source of the values: article PMC4433340 (PLoS Neglected Tropical Diseases, 2015).
